Tests used:
ELIC D158N = target: T1, ELIC D158N (Dickeya chrysanthemi, UniProt P0C7B7, D158N/INS163G); experiment: Two-electrode voltage clamp, ELIC D158N in oocytes; format: cell-based, Erwinia chrysanthemi; conditions: agonist cysteamine
T1 construct: expressed in transfected cells; host or cells: X. laevis oocytes
Description: (§1) Constructs containing the gene of either the WT or mutant channels preceded by the signal sequence of the chicken α7nAchR were cloned into the pTLN vector for expression in X. laevis oocytes. After linearization of the plasmid DNA by MluI, capped complementary RNA was transcribed with the mMessage mMachine kit (Ambion) and purified with the RNeasy kit (Qiagen). For expression, 1–50 ng of RNA was injected into defolliculated oocytes. Two-electrode voltage clamp measurements were performed 1 d after injection at 20°C (OC-725B, Warner Instrument Corp.). Currents were recorded in bath solutions containing 10 mM HEPES (pH 7), 130 mM NaCl, and the indicated concentrations of cysteamine and divalent cations. In case of solutions containing Zn^2+, cysteamine was replaced by propylamine. The membrane potential in all dose–response measurements was set to −40 mV. As ELIC is permeable to divalent cations, we tested if endogenous calcium-activated chloride channels affected our measurements. To chelate intracellular calcium ions, the oocytes were incubated for 15 to 30 min in bath solutions lacking divalent ions but containing 10 µM BAPTA-AM.

ELIC D113A = target: T2, ELIC D113A (Dickeya chrysanthemi, UniProt P0C7B7, D113A/INS163G); experiment: Two-electrode voltage clamp, ELIC D113A in oocytes; format: cell-based, Erwinia chrysanthemi; conditions: agonist cysteamine
T2 construct: expressed in transfected cells; host or cells: X. laevis oocytes
Description: as §1

NCCS [cysteamine]
EC50 (ELIC D158N; Ca^2+ 0 mM): 3.88 mM | EC50 (ELIC D158N; Ca^2+ 1 mM): 5.61 mM | EC50 (ELIC D158N; Ca^2+ 5 mM): 8.5 mM | EC50 (ELIC D158N; Ca^2+ 10 mM): 11.2 mM | EC50 (ELIC D113A; Ca^2+ 0 mM): 0.95 mM | EC50 (ELIC D113A; Ca^2+ 1 mM): 0.88 mM | EC50 (ELIC D113A; Ca^2+ 2.5 mM): 1.46 mM | EC50 (ELIC D113A; Ca^2+ 5 mM): 1.86 mM | EC50 (ELIC D113A; Ca^2+ 10 mM): 2.9 mM | EC50 (ELIC D113A; Ca^2+ 25 mM): 6.37 mM

— PMC3502511, “Inhibition of the Prokaryotic Pentameric Ligand-Gated Ion Channel ELIC by Divalent Cations” (PLoS Biology, 2012)
